Earlier results, collected in US20240238347A1, “PHOTORECEPTOR CELLS FOR RETINAL AND MACULAR REPAIR” (The Johns Hopkins University, priority 2021, published 2024).
Like-named read-outs stand apart in the source and are kept apart here.

Legend:
[1] = test system: human retinal organoids
[2] = test system: WERI-Rb1 retinoblastoma cells; details: retinoblastoma cell line treated with T3
[3] = test system: Thrβ mutant organoids; details: Thrβ KO+T3; early T3 addition
[4] = test system: ESC- and iPSC-derived organoids
[5] = 'Early RA': 1.0 μM RA from days 43 to 130
[6] = 'Late RA': 1.0 μM RA from days 130 to 200
[7] = wild type+T3, 20 nM T3 starting from days 20 to 50 until day 200 of differentiation

SMILES	L cones at day 200 [1, 5]	M cones at day 200 [1, 5]	co-expressing cones at day 200 [1, 5]	L cones at day 200 [1, 6]	M cones at day 200 [1, 6]	co-expressing cones at day 200 [1, 6]	M-opsin and L-opsin expression (RNA-seq) ([1]; ESC-derived organoids grown in 'Early RA' conditions)	overall M/L cone densities at day 200 ([1]; across experimental conditions (No RA, Early RA, Late RA))	M-opsin expression (previously published RNA-seq data) ([1]; iPSC-derived organoids grown in 'Early RA' conditions)	organoid differentiation / M or L cone yield ([1]; supplemental RA throughout development (N=6))	L/M-opsin expression [2]	L/M cones, share of cones [3]	S cones, share of cones [3]	cone density ([4]; early T3 addition in organoids)	L/M cones (L/M-opsin expressing), share of cones [4, 7]	S cones (S-opsin expressing), share of cones [4, 7]
CC1=C(/C=C/C(C)=C/C=C/C(C)=C/C(=O)O)C(C)(C)CCC1 [RA, all-trans retinoic acid]	1.65%	98.35%	0%	92.56%	6.35%	1.10%	high M-opsin and minimal L-opsin expression	no significant differences	near exclusive expression of M-opsin	failed to differentiate, yielding minimal M or L cones	–	–	–	–	–	–
N[C@@H](Cc1cc(I)c(Oc2ccc(O)c(I)c2)c(I)c1)C(=O)O [T3, triiodothyronine]	–	–	–	–	–	–	–	–	–	–	expresses L/M-opsin	0%	100%	dramatically increased cone density	96%	4%
